Where two headings read alike, the source gives them in different places.
What was measured:
A/H3N2 Brisbane = experiment: Antiviral assay in MDCK cells, viral neuraminidase (MUNANA) readout, A/H3N2 Brisbane; format: cell-based, influenza A; conditions: viral NA activity
A/H1N1/Solomon Islands = experiment: Antiviral assay in MDCK cells, viral neuraminidase (MUNANA) readout, A/H1N1/Solomon Islands; format: cell-based, influenza A; conditions: viral NA activity
A/H5N1/Duck_PA = experiment: microbe, parasite or virus in culture; format: cell-based, influenza virus; conditions: read-out: A/H5N1/Duck_PA EC50
A/H5N1/Gull_PA = experiment: microbe, parasite or virus in culture; format: cell-based, influenza virus; conditions: read-out: A/H5N1/Gull_PA EC50
A/H1N1/WSN = experiment: Antiviral assay in MDCK cells, viral neuraminidase (MUNANA) readout, A/H1N1/WSN; format: cell-based, influenza A; conditions: MOI 0.001, 48 hrs post infection, viral NA activity
A/H5N1/Duck_MN = experiment: microbe, parasite or virus in culture; format: cell-based, influenza virus; conditions: read-out: A/H5N1/Duck_MN EC50
[1] = Human Liver Microsomal Stability; conditions: human liver microsomes
[2] = Mouse Liver Microsomal Stability; conditions: mouse liver microsomes
[3] = Influenza A virus, H3N2, MOI 0.001, 48 hrs post infection
[4] = Influenza A virus, H1N1, MOI 0.001, 48 hrs post infection
[5] = Influenza A virus, H5N1, MDCK, 48 h
[6] = MOI 0.001, 48 hrs post infection

Cc1c[nH]c(-c2ccccc2Cl)c1C(=O)N1CCN(c2ccc([N+](=O)[O-])cc2Cl)CC1 [Example 75, (4-(2-chloro-4-nitrophenyl)piperazin-1-yl)(2-(2-chlorophenyl)-4-methyl-1H-pyrrol-3-yl)methanone]
EC50 (A/H3N2 Brisbane; [3]): > 10 µM | EC50 (A/H1N1/Solomon Islands; [4]): < 10 µM | EC50 (A/H5N1/Duck_PA; [5]): < 1 µM | EC50 (A/H5N1/Gull_PA; [5]): < 0.1 µM | EC50 (A/H1N1/WSN; Influenza A virus): < 0.1 µM | EC50 (A/H5N1/Duck_MN; [5]): < 1 µM

Cc1onc(-c2cccnc2Cl)c1C(=O)N1CCN(c2ccc([N+](=O)[O-])cc2Cl)CC1 [Example 61]
EC50 (A/H3N2 Brisbane; [6]): > 10 µM | EC50 (A/H1N1/Solomon Islands; [6]): < 10 µM | EC50 (A/H5N1/Duck_PA): < 1 µM | EC50 (A/H5N1/Gull_PA): < 1 µM | EC50 (A/H1N1/WSN): < 0.1 µM | Human Liver Microsomal Stability (% Remaining after 10 minutes) [1]: 50% | EC50 (A/H5N1/Duck_MN): < 1 µM | Mouse Liver Microsomal Stability (% Remaining after 10 minutes) [2]: 18%

Cc1onc(-c2ccccc2O)c1C(=O)N1CCN(c2ncc(Cl)cc2Cl)CC1 [Example 142, (4-(3,5-dichloropyridin-2-yl)piperazin-1-yl)(3-(2-hydroxyphenyl)-5-methylisoxazol-4-yl)methanone]
Human Liver Microsomal Stability (% Remaining after 10 minutes) [1]: 80% | Mouse Liver Microsomal Stability (% Remaining after 10 minutes) [2]: 34%

COc1ccccc1-c1n[nH]c(C)c1C(=O)N1CCN(c2ncc([N+](=O)[O-])cc2Cl)CC1 [Example 83]
Human Liver Microsomal Stability (% Remaining after 10 minutes) [1]: 52% | Mouse Liver Microsomal Stability (% Remaining after 10 minutes) [2]: 16%

Cc1nnn(-c2ccccc2Cl)c1C(=O)N1CCN(c2ccc([N+](=O)[O-])cc2Cl)CC1 [Example 88]
EC50 (A/H3N2 Brisbane; [6]): > 10 µM | EC50 (A/H1N1/Solomon Islands; [6]): < 10 µM | EC50 (A/H5N1/Duck_PA): < 10 µM | EC50 (A/H5N1/Gull_PA): < 1 µM | EC50 (A/H1N1/WSN): < 1 µM | Human Liver Microsomal Stability (% Remaining after 10 minutes) [1]: 47% | EC50 (A/H5N1/Duck_MN): < 10 µM | Mouse Liver Microsomal Stability (% Remaining after 10 minutes) [2]: 23%

Cc1cc(Br)cnc1N1CCN(C(=O)c2c(-c3ccccc3Cl)noc2C)CC1 [Example 132, (4-(5-bromo-3-methylpyridin-2-yl)piperazin-1-yl)(3-(2-chlorophenyl)-5-methylisoxazol-4-yl)methanone]
EC50 (A/H3N2 Brisbane; [3]): > 10 µM | EC50 (A/H1N1/Solomon Islands; [4]): < 10 µM | EC50 (A/H5N1/Duck_PA; [5]): > 10 µM | EC50 (A/H5N1/Gull_PA; [5]): > 10 µM | EC50 (A/H1N1/WSN; Influenza A virus): < 1 µM | EC50 (A/H5N1/Duck_MN; [5]): > 10 µM

COc1ccc(N)cc1-c1noc(C)c1C(=O)N1CCN(c2ncc(Cl)cc2Cl)CC1 [Example 159, (3-(5-amino-2-methoxyphenyl)-5-methylisoxazol-4-yl)(4-(3,5-dichloropyridin-2-yl)piperazin-1-yl)methanone]
Human Liver Microsomal Stability (% Remaining after 10 minutes) [1]: 62% | Mouse Liver Microsomal Stability (% Remaining after 10 minutes) [2]: 36%

COc1ccc(-c2noc(C)c2C(=O)N2CCN(c3ccc([N+](=O)[O-])cc3Cl)CC2)c(Cl)c1 [Example 31]
EC50 (A/H3N2 Brisbane; [6]): > 10 µM | EC50 (A/H1N1/Solomon Islands; [6]): < 1 µM | EC50 (A/H5N1/Duck_PA): < 1 µM | EC50 (A/H5N1/Gull_PA): < 0.1 µM | EC50 (A/H1N1/WSN): < 0.1 µM | EC50 (A/H5N1/Duck_MN): < 1 µM

COc1ncccc1-c1noc(C)c1C(=O)N1CCN(c2ccc([N+](=O)[O-])cc2Cl)CC1 [Example 45]
Human Liver Microsomal Stability (% Remaining after 10 minutes) [1]: 56% | Mouse Liver Microsomal Stability (% Remaining after 10 minutes) [2]: 33%

COc1ccccc1-c1noc(C)c1C(=O)N1CCN(c2ncc(Cl)cc2Br)CC1 [Example 129]
EC50 (A/H3N2 Brisbane; [6]): < 10 µM | EC50 (A/H1N1/Solomon Islands; [6]): < 10 µM | EC50 (A/H5N1/Duck_PA): < 10 µM | EC50 (A/H5N1/Gull_PA): < 1 µM | EC50 (A/H1N1/WSN): < 1 µM | EC50 (A/H5N1/Duck_MN): < 10 µM

COc1ccccc1-c1nnn(C)c1C(=O)N1CCN(c2ccc([N+](=O)[O-])cc2Cl)CC1 [Example 81]
EC50 (A/H3N2 Brisbane; [6]): > 10 µM | EC50 (A/H1N1/Solomon Islands; [6]): < 10 µM | EC50 (A/H5N1/Duck_PA): < 1 µM | EC50 (A/H5N1/Gull_PA): < 0.1 µM | EC50 (A/H1N1/WSN): < 0.1 µM | Human Liver Microsomal Stability (% Remaining after 10 minutes) [1]: 73% | EC50 (A/H5N1/Duck_MN): < 1 µM | Mouse Liver Microsomal Stability (% Remaining after 10 minutes) [2]: 45%

Cc1onc(-c2ccc(F)cc2)c1C(=O)N1CCN(c2ccc([N+](=O)[O-])cc2Cl)CC1 [Example 27]
Human Liver Microsomal Stability (% Remaining after 10 minutes) [1]: 66% | Mouse Liver Microsomal Stability (% Remaining after 10 minutes) [2]: 86%

Cc1[nH]nc(-c2ccccc2Cl)c1C(=O)N1CCN(c2ccc([N+](=O)[O-])cc2Cl)CC1 [Example 72]
EC50 (A/H3N2 Brisbane; [6]): > 10 µM | EC50 (A/H1N1/Solomon Islands; [6]): > 10 µM | EC50 (A/H5N1/Duck_PA): < 10 µM | EC50 (A/H5N1/Gull_PA): < 1 µM | EC50 (A/H1N1/WSN): < 1 µM | Human Liver Microsomal Stability (% Remaining after 10 minutes) [1]: 78% | EC50 (A/H5N1/Duck_MN): < 10 µM | Mouse Liver Microsomal Stability (% Remaining after 10 minutes) [2]: 61%

COc1ccc2ccccc2c1-c1noc(C)c1C(=O)N1CCN(c2ccc([N+](=O)[O-])cc2Cl)CC1 [Example 63]
EC50 (A/H3N2 Brisbane; [6]): > 10 µM | EC50 (A/H1N1/Solomon Islands; [6]): < 1 µM | EC50 (A/H5N1/Duck_PA): < 1 µM | EC50 (A/H5N1/Gull_PA): < 0.1 µM | EC50 (A/H1N1/WSN): < 0.1 µM | EC50 (A/H5N1/Duck_MN): < 1 µM

COc1cc(F)ccc1-c1noc(C)c1C(=O)N1CCN(c2ccc([N+](=O)[O-])cc2Cl)CC1 [Example 29]
Human Liver Microsomal Stability (% Remaining after 10 minutes) [1]: 68% | Mouse Liver Microsomal Stability (% Remaining after 10 minutes) [2]: 28%

COc1ccccc1-c1n[nH]c(C)c1C(=O)N1CCN(c2ccc([N+](=O)[O-])cc2Cl)CC1 [Example 80]
EC50 (A/H3N2 Brisbane; [6]): > 10 µM | EC50 (A/H1N1/Solomon Islands; [6]): < 10 µM | EC50 (A/H5N1/Duck_PA): < 10 µM | EC50 (A/H5N1/Gull_PA): < 1 µM | EC50 (A/H1N1/WSN): < 10 µM | Human Liver Microsomal Stability (% Remaining after 10 minutes) [1]: 72% | EC50 (A/H5N1/Duck_MN): < 10 µM | Mouse Liver Microsomal Stability (% Remaining after 10 minutes) [2]: 65%

Cc1onc(-c2cccc(Cl)c2)c1C(=O)N1CCN(c2ccc([N+](=O)[O-])cc2Cl)CC1 [Example 28]
Human Liver Microsomal Stability (% Remaining after 10 minutes) [1]: 94% | Mouse Liver Microsomal Stability (% Remaining after 10 minutes) [2]: 85%

COc1ccc(NS(C)(=O)=O)cc1-c1noc(C)c1C(=O)N1CCN(c2ncc(Cl)cc2Cl)CC1 [Example 161, N-(3-(4-(4-(3,5-dichloropyridin-2-yl)piperazine-1-carbonyl)-5-methylisoxazol-3-yl)-4-methoxyphenyl)methanesulfonamide]
Human Liver Microsomal Stability (% Remaining after 10 minutes) [1]: 70% | Mouse Liver Microsomal Stability (% Remaining after 10 minutes) [2]: 8%

COc1ccc(NS(C)(=O)=O)cc1-c1noc(C)c1C(=O)N1CCN(c2ccc([N+](=O)[O-])cc2Cl)CC1 [Example 163]
Human Liver Microsomal Stability (% Remaining after 10 minutes) [1]: 75% | Mouse Liver Microsomal Stability (% Remaining after 10 minutes) [2]: 49%

Cc1onc(-c2ccccc2Cl)c1C(=O)N1CCN(c2ccc([N+](=O)[O-])cc2Cl)CC1 [reference compound]
Human Liver Microsomal Stability (% Remaining after 10 minutes) [1]: 6% | Mouse Liver Microsomal Stability (% Remaining after 10 minutes) [2]: 0%

Cc1c[nH]c(-c2ccccc2Cl)c1C(=O)N1CCN(c2ncc(Cl)cc2Cl)CC1 [Example 133]
EC50 (A/H3N2 Brisbane; [6]): < 10 µM | EC50 (A/H1N1/Solomon Islands; [6]): < 10 µM | EC50 (A/H5N1/Duck_PA): > 10 µM | EC50 (A/H5N1/Gull_PA): < 10 µM | EC50 (A/H1N1/WSN): < 1 µM | EC50 (A/H5N1/Duck_MN): > 10 µM

COc1ccccc1-c1ncn(C)c1C(=O)N1CCN(c2ccc([N+](=O)[O-])cc2Cl)CC1 [Example 82]
EC50 (A/H3N2 Brisbane; [6]): > 10 µM | EC50 (A/H1N1/Solomon Islands; [6]): > 10 µM | EC50 (A/H5N1/Duck_PA): < 10 µM | EC50 (A/H5N1/Gull_PA): < 1 µM | EC50 (A/H1N1/WSN): < 1 µM | Human Liver Microsomal Stability (% Remaining after 10 minutes) [1]: 45% | EC50 (A/H5N1/Duck_MN): < 10 µM | Mouse Liver Microsomal Stability (% Remaining after 10 minutes) [2]: 43%

Cc1cnn(-c2ccccc2Cl)c1C(=O)N1CCN(c2ccc([N+](=O)[O-])cc2Cl)CC1 [Example 77]
EC50 (A/H3N2 Brisbane; [6]): > 10 µM | EC50 (A/H1N1/Solomon Islands; [6]): > 10 µM | EC50 (A/H5N1/Duck_PA): < 10 µM | EC50 (A/H5N1/Gull_PA): < 1 µM | EC50 (A/H1N1/WSN): < 1 µM | EC50 (A/H5N1/Duck_MN): < 10 µM

Cc1onc(-c2ccccc2Cl)c1C(=O)N1CCN(c2ccc([N+](=O)[O-])cc2F)CC1 [Example 4]
Human Liver Microsomal Stability (% Remaining after 10 minutes) [1]: 72% | Mouse Liver Microsomal Stability (% Remaining after 10 minutes) [2]: 86%

Cc1onc(-c2ccccc2C(N)=O)c1C(=O)N1CCN(c2ccc([N+](=O)[O-])cc2Cl)CC1 [Example 155, 2-(4-(4-(2-chloro-4-nitrophenyl)piperazine-1-carbonyl)-5-methylisoxazol-3-yl)benzamide]
Human Liver Microsomal Stability (% Remaining after 10 minutes) [1]: 80% | Mouse Liver Microsomal Stability (% Remaining after 10 minutes) [2]: 61%

COc1ccc(NC(C)=O)cc1-c1noc(C)c1C(=O)N1CCN(c2ccc([N+](=O)[O-])cc2Cl)CC1 [Example 165]
EC50 (A/H3N2 Brisbane; [6]): > 10 µM | EC50 (A/H1N1/Solomon Islands; [6]): < 1 µM | EC50 (A/H5N1/Duck_PA): < 10 µM | EC50 (A/H5N1/Gull_PA): < 1 µM | EC50 (A/H1N1/WSN): < 1 µM | EC50 (A/H5N1/Duck_MN): < 10 µM

COc1ccccc1-c1noc(C)c1C(=O)N1CCN(c2ccc([N+](=O)[O-])cc2Cl)CC1 [Example 18]
EC50 (A/H3N2 Brisbane; [6]): < 10 µM | EC50 (A/H1N1/Solomon Islands; [6]): < 1 µM | EC50 (A/H5N1/Duck_PA): < 1 µM | EC50 (A/H5N1/Gull_PA): < 0.1 µM | EC50 (A/H1N1/WSN): < 0.1 µM | EC50 (A/H5N1/Duck_MN): < 1 µM

COc1ccccc1-c1nnn(C)c1C(=O)N1CCN(c2ncc([N+](=O)[O-])cc2Cl)CC1 [Example 86]
EC50 (A/H3N2 Brisbane; [6]): > 10 µM | EC50 (A/H1N1/Solomon Islands; [6]): < 10 µM | EC50 (A/H5N1/Duck_PA): < 10 µM | EC50 (A/H5N1/Gull_PA): < 1 µM | EC50 (A/H1N1/WSN): < 1 µM | EC50 (A/H5N1/Duck_MN): < 10 µM

Cc1onc(-c2ccccc2)c1C(=O)N1CCN(c2ccc([N+](=O)[O-])cc2Cl)CC1 [reference compound]
Human Liver Microsomal Stability (% Remaining after 10 minutes) [1]: 40% | Mouse Liver Microsomal Stability (% Remaining after 10 minutes) [2]: 20%
